Reference: PMC2996728 (Archives of biochemistry and biophysics, 2009)

Biological target: T1, Microsomal glutathione transferase 1 (MGST1) (Rattus norvegicus, UniProt P08011)
T1 sequence (P08011 2-155): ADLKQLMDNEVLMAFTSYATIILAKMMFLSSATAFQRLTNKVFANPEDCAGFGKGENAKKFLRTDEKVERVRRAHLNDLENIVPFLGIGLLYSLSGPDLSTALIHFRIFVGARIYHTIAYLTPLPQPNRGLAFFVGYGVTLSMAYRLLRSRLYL
Assay: equilibrium dialysis
Format: binding

## N[C@@H](CCC(=O)N[C@@H](CSc1ccc([N+](=O)[O-])cc1[N+](=O)[O-])C(=O)NCC(=O)O)C(=O)O [GSDNB, 1-S-glutathionyl-2,4-dinitrobenzene]
  Kd: 320 ± 50 µM
